Assays:
[1] = molecular target: T1, CDK2/CycE (Homo sapiens, UniProt P24941); experiment: CDK2/CycE high ATP kinase assay (Method 2b, TR-FRET, 2 mM ATP); assay type: biochemical
T1 construct: GST; purchased ProQinase GmbH (Freiburg, Germany); host or cells: insect cells (Sf9)
Experimental: 2b. CDK2/CycE High ATP Kinase Assay:
CDK2/CycE-inhibitory activity of compounds of the present invention at 2 mM adenosine-tri-phosphate (ATP) was quantified employing the CDK2/CycE TR-FRET (TR-FRET=Time Resolved Fluorescence Resonance Energy Transfer) assay as described in the following paragraphs.
Recombinant fusion proteins of GST and human CDK2 and of GST and human CycE, expressed in insect cells (Sf9) and purified by Glutathion-Sepharose affinity chromatography, were purchase from ProQinase GmbH (Freiburg, Germany). As substrate for the kinase reaction biotinylated peptide biotin-Ttds-YISPLKSPYKISEG (C-terminus in amid form) was used which can be purchased e.g. from the company JERINI peptide technologies (Berlin, Germany).
For the assay 50 nl of a 100 fold concentrated solution of the test compound in DMSO was pipetted into a black low volume 384 well microtiter plate (Greiner Bio-One, Frickenhausen, Germany), 2 μl of a solution of CDK2/CycE in aqueous assay buffer [50 mM Tris/HCl pH 8.0, 10 mM MgCl2, 1.0 mM dithiothreitol, 0.1 mM sodium ortho-vanadate, 0.01% (v/v) Nonidet-P40 (Sigma)] were added and the mixture was incubated for 15 min at 22° C. to allow pre-binding of the test compounds to the enzyme before the start of the kinase reaction. […] The concentration of CDK2/CycE was adjusted depending of the activity of the enzyme lot and was chosen appropriate to have the assay in the linear range, typical concentrations were in the range of 15 ng/ml. The reaction was stopped by the addition of 5 μl of a solution of TR-FRET detection reagents (0.2 μM streptavidine-XL665 [Cisbio Bioassays, Codolet, France] and 1 nM anti-RB(pSer807/pSer811)-antibody from BD Pharmingen [#558389] and 1.2 nM LANCE EU-W1024 labeled anti-mouse IgG antibody [Perkin-Elmer, product no. AD0077, as an alternative a Terbium-cryptate-labeled anti-mouse IgG antibody from Cisbio Bioassays can be used]) in an aqueous EDTA-solution (100 mM EDTA, 0.2% (w/v) bovine serum albumin in 100 mM HEPES pH 7.5).
The resulting mixture was incubated 1 h at 22° C. to allow the formation of complex between the phosphorylated biotinylated peptide and the detection reagents. Subsequently the amount of phosphorylated substrate was evaluated by measurement of the resonance energy transfer from the Eu-chelate to the streptavidine-XL. Therefore, the fluorescence emissions at 620 nm and 665 nm after excitation at 350 nm wer measured in a TR-FRET reader, e.g. a Rubystar (BMG Labtechnologies, Offenburg, Germany) or a Viewlux (Perkin-Elmer). The ratio of the emissions at 665 nm and at […] was taken as the measure for the amount of phosphorylated substrate. The data were normalised (enzyme reaction without inhibitor=0% inhibition, all other assay components but no enzyme=100% inhibition).

[2] = test system: NCI-H460; experiment: Proliferation assay, crystal violet; assay type: cell-based; details: Homo sapiens, 96 h; NCI-H460, 4 days; read-out: Inhibition of NCI-H460 cell proliferation IC50
Experimental: (§1) Cultivated tumour cells (HeLa, human cervical tumour cells, ATCC CCL-2; NCI—H460, human non-small cell lung carcinoma cells, ATCC HTB-177; DU 145, hormone-independent human prostate carcinoma cells, ATCC HTB-81; HeLa-MaTu-ADR, multidrug-resistant human cervical carcinoma cells, EPO-GmbH Berlin; Caco-2, human colorectal carcinoma cells, ATCC HTB-37; B16F10, mouse melanoma cells, ATCC CRL-6475) were plated at a density of 3,500 cells/well (DU145), 3,000 cells/well (HeLa-MaTu-ADR), 1,500 cells/well (NCI—H460), 3,000 cells/well (HeLa), 2,000 cells/well (Caco-2), or 1,000 cells/well (B16F10) in a 96-well multititer plate in 150 μL of their respective growth medium supplemented 10% fetal calf serum. After 24 hours, the cells of one plate (zero-point plate) were stained with crystal violet (see below), the test substances were added in various concentrations (0 μM, as well as in the range of 0.0001-10 μM) employing HP Dispenser. The cells were incubated for 4 days in the presence of test substances. Cell proliferation was determined by staining the cells with crystal violet: the cells were fixed by adding 20 μl/measuring point of an 11% glutaric aldehyde solution for 15 minutes at room temperature. After three washing cycles of the fixed cells with water, the plates were dried at room temperature. The cells were stained by adding 100 μl/measuring point of a 0.1% crystal violet solution DU 145, Caco-2, HeLa (pH 4.5) B16F10, NCI—H460, HeLa-MaTu-ADR. After three washing cycles of the stained cells with water, the plates were dried at room temperature. The dye was dissolved by adding 100 μl per measuring point of a 10% acetic acid solution. The extinction was determined by photometry at a wavelength of 595/550/620 nm depending on the intensity of coloration, usually at 595 nm. The change of cell number, in percent, was calculated by normalization of the measured values to the extinction values of the zero-point plate (=0%) and the extinction of the untreated (0 μM) cells (=100%). The IC50 values (inhibitory concentration at 50% of maximal effect) were determined by means of a 4 parameter fit.

[3] = test system: Caco-2; experiment: Proliferation assay, crystal violet; assay type: cell-based; details: Homo sapiens, 96 h; Caco-2, 4 days; read-out: Inhibition of Caco-2 cell proliferation IC50
Experimental: as §1

[4] = test system: B16F10; experiment: Proliferation assay, crystal violet; assay type: cell-based; details: Mus musculus, B16-F10, 96 h; B16F10, 4 days; read-out: Inhibition of B16F10 cell proliferation IC50
Experimental: as §1

[5] = test system: HeLa; experiment: Proliferation assay, crystal violet; assay type: cell-based; details: Homo sapiens, 96 h, 4 days, read-out: Inhibition of HeLa cell proliferation IC50
Experimental: as §1

Row | SMILES | IC50 [1] [nM] | IC50 [2] [nM] | IC50 [3] [nM] | IC50 [4] [nM] | IC50 [5] [nM]
1 | CS(=N)(Cc1cc2cc(c1)OCCCCOc1cc(F)ccc1-c1nc(ncc1F)N2)=NC1CC1 (racemic) [Example 9, (rac)-9-[(N-cyclopropyl-S-methylsulfonodiimidoyl)methyl]-16,20-difluoro-2,3,4,5-tetrahydro-12H-13,17-(azeno)-11,7-(metheno)-1,6,12,14-benzodioxadiazacyclononadecine] | 997 | 56 | 47.8 | 92.2 | 31.6
2 | CN=S(C)(=N)Cc1cc2cc(c1)OCCCCOc1cc(F)ccc1-c1nc(ncc1F)N2 (racemic) [Example 10, (rac)-9-[(N,S-dimethylsulfonodiimidoyl)methyl]-16,20-difluoro-2,3,4,5-tetrahydro-12H-13,17-(azeno)-11,7-(metheno)-1,6,12,14-benzodioxadiazacyclononadecine] | 1650 |  |  |  | 
3 | CS(=N)(=N)Cc1cc2cc(c1)OCCCCOc1cc(F)ccc1-c1nc(ncc1F)N2 [Example 5, 16,20-difluoro-9-[(S-methylsulfonodiimidoyl)methyl]-2,3,4,5-tetrahydro-12H-13,17-(azeno)-11,7-(metheno)-1,6,12,14-benzodioxadiazacyclononadecine] | 1240 | 38.3 | 35.2 | 50.6 | 25.8
4 | CS(=N)(=N)Cc1cc2cc(c1)OCCCCOc1c(ccc(F)c1F)-c1nc(ncc1F)N2 [Example 6, 16,20,21-trifluoro-9-[(S-methylsulfonodiimidoyl)methyl]-2,3,4,5-tetrahydro-12H-13,17-(azeno)-11,7-(metheno)-1,6,12,14-benzodioxadiazacyclononadecine] | 12500 | 369 | 325 | 683 | 313
5 | CS(=N)(=N)Cc1cc2cc(c1)OCCCCOc1c(F)cccc1-c1nc(ncc1F)N2 [Example 7, 16,21-difluoro-9-[(S-methylsulfonodiimidoyl)methyl]-2,3,4,5-tetrahydro-12H-13,17-(azeno)-11,7-(metheno)-1,6,12,14-benzodioxadiazacyclononadecine] |  | 448 | 396 | 784 | 332

More lines, now with the values ahead:

Row | IC50 [1] [nM] | IC50 [2] [nM] | IC50 [3] [nM] | IC50 [4] [nM] | IC50 [5] [nM] | SMILES
6 | 246 | 89.8 | 28.7 | 37.4 | 10.2 | CS(=N)(Cc1cc2nc(c1)OCCCOc1cc(F)ccc1-c1cc(ncc1F)N2)=NCCCO (racemic) [Example 2, (rac)-3-(2-{[15,19-difluoro-3,4-dihydro-2H,11H-10,6-(azeno)-12,16-(metheno)-1,5,11,13-benzodioxadiazacyclooctadecin-8-yl]methyl}-2-methyl-2λ^6-diazathia-1,2-dien-1-yl)propan-1-ol]
7 | 62.4 |  |  |  |  | CS(=N)(Cc1cc2nc(c1)OCCCOc1cc(F)ccc1-c1cc(ncc1F)N2)=NC#N (racemic) [Example 3, (rac)-[{[15,19-difluoro-3,4-dihydro-2H,11H-10,6-(azeno)-12,16-(metheno)-1,5,11,13-benzodioxadiazacyclooctadecin-8-yl]methyl}(imino)methyl-λ^6-sulfanylidene]cyanamide]
8 | 620 |  |  |  |  | CN=S(C)(=N)Cc1cc2nc(c1)OCCCOc1cc(F)ccc1-c1cc(ncc1F)N2 (racemic) [Example 4, (rac)-8-[(N,S-dimethylsulfonodiimidoyl)methyl]-15,19-difluoro-3,4-dihydro-2H,11H-10,6-(azeno)-12,16-(metheno)-1,5,11,13-benzodioxadiazacyclooctadecine]
9 | 140 | 10.4 | 16.4 | 14.3 | 2.8 | CS(=N)(=N)Cc1cc2nc(c1)OCCCOc1cc(F)ccc1-c1cc(ncc1F)N2 [Example 1, 15,19-difluoro-8-[(S-methylsulfonodiimidoyl)methyl]-3,4-dihydro-2H,11H-10,6-(azeno)-12,16-(metheno)-1,5,11,13-benzodioxadiazacyclooctadecine]
10 | 378 |  | 43.1 | 50.7 | 5.5 | CS(=N)(=N)Cc1cc2nc(c1C#N)OCCCOc1cc(F)ccc1-c1cc(ncc1F)N2 [Example 8, 15,19-difluoro-8-[(S-methylsulfonodiimidoyl)methyl]-3,4-dihydro-2H,11H-10,6-(azeno)-12,16-(metheno)-1,5,11,13-benzodioxadiazacyclooctadecine-7-carbonitrile]

— patent US10717749B2, “Macrocyclic sulfondiimine compounds” (BAYER PHARMA AKTIENGESELLSCHAFT, priority 2015, dated 2020)
